Measurements published in ChEMBL document CHEMBL1128945, “Peptide inhibitors of IKB protease: Modification of the C-termini of Z-LLF-CHO” (Bioorg Med Chem Lett, 1996).
Square brackets hold non-standard residues; d marks the D form. Peptide text beside a SMILES is read from it. * marks the point of attachment. 1Nal = N[C@@H](Cc1cccc2ccccc12)C(=O)O; 2Nal = N[C@@H](Cc1ccc2ccccc2c1)C(=O)O; Cbz = O=C(OCc1ccccc1)*

Legend:
[1] = Compound was evaluated for its ability to inhibit activation of NFkB protease stably expressed in human Jurkat T-cells; assay type: cell-based
[2] = tested on: Jurkat; experiment: Ability to decrease IL-2 levels in human Jurkat T-cells; assay type: functional, cell-based
[3] = tested on: Jurkat; experiment: Ability to decrease IL-8 levels in human Jurkat T-cells; assay type: functional, cell-based

`CC(C)C[C@H](NC(=O)[C@H](Cc1cccc2ccccc12)NC(=O)[C@H](Cc1ccc2ccccc2c1)NC(=O)OCc1ccccc1)C(=O)O` (Cbz-[2Nal]-[1Nal]-Leu-OH) showed an IC50 [1] of 3 µM.
In the case of `CC(C)C[C@H](NC(=O)OCc1ccccc1)C(=O)N[C@@H](CC(C)C)C(=O)N[C@@H](Cc1ccccc1)C(=O)Nc1ccc(C(F)(F)F)cc1`, the IC50 [1] is reported as over 30 µM.
In the case of `CC(=O)c1cccc(NC(=O)[C@H](CC(C)C)NC(=O)[C@H](CC(C)C)NC(=O)OCc2ccccc2)c1`, the IC50 [1] is reported as over 10 µM.
With `CC(C)C[C@H](NC(=O)OCc1ccccc1)C(=O)N[C@@H](CC(C)C)C(=O)N[C@@H](Cc1ccccc1)C(=O)C(=O)C(=O)OCc1ccccc1` the IC50 [1] was 20 µM.
`CC(=O)[C@H](Cc1ccccc1)NC(=O)[C@H](CC(C)C)NC(=O)[C@H](CC(C)C)NC(=O)OCc1ccccc1` gave an IC50 [1] of over 30 µM.
Work on `CC(C)C[C@H](NC(=O)OCc1ccccc1)C(=O)N[C@@H](CC(C)C)C(=O)N[C@@H](Cc1ccccc1)C(=O)C(F)(F)C(F)(F)F` yielded an IC50 [1] of over 30 µM.
`CON(C)C(=O)[C@H](Cc1ccccc1)NC(=O)[C@H](CC(C)C)NC(=O)[C@H](CC(C)C)NC(=O)OCc1ccccc1` (stereo in doubt; 4a(L)) gave an IC50 [1] of 18 µM.
Work on `CC(C)CC(NC(=O)OCc1ccccc1)C(=O)NC(CC(C)C)C(=O)NC(C=O)Cc1ccccc1` (stereo not drawn) (Cbz-Leu-Leu-Phe-aldehyde; configuration not given here) yielded an IC50 [2] of 0.9 µM, an IC50 [1] of 2 µM and an IC50 [3] of 2 µM.
For `CON(C)C(=O)[C@H](Cc1ccccc1)NC(=O)[C@H](CC(C)C)NC(=O)[C@H](CC(C)C)NC(=O)OCc1ccccc1` (stereo in doubt; 4b(D)), the IC50 [1] was over 30 µM.
